Laboratory results reported in patent US9247750B2, “Polyenylcyclopropanecarboxylic esters with high insecticidal activity” (Endura S.P.A., priority 2007, dated 2016).

Columns and labels:
Type in all cases: in vivo
[1] = system: Blattella germanica; assay: Effectiveness of residual insecticide on surfaces (glazed tiles) against cockroaches (Example 6); details: 50 mg/m^2 on glazed tiles; for percentage knock-down after 24 hours: 24 h exposure
Description: Solutions of the compound of example 3 in acetone and, for comparison, of the reference compounds Transfluthrin and Metofluthrin were applied from a distance of 12 cm onto glazed tiles (Ostara model, 15×15 cm=225 cm^2) by means of a suitable glass sprayer, so as to obtain an applied amount of pure compound equal to 50 mg/m^2. After treatment the tiles were transferred to and maintained in a closed test room at controlled temperature and humidity (24-25° C., RH 50-60%). Glass rings (H 5.5 cm×Ø 9.5 cm), with their internal surface treated with talc, and each containing 5 cockroaches, were positioned at the centre of the tiles for each of the assessment times of 24 hours, 3, 7, 10 and 14 days following treatment. For each assessment day, the insects were maintained on the surface for 24 hours and the time (hours, minutes) necessary to attain 100% knock-down followed by death, or percentage knock-down at the end of 24 hours, were recorded.

[2] = system: Aedes aegypti; assay: Insecticide effectiveness in the vapour phase against mosquitoes, impregnated paper unit in 20 m^3 room (Example 9); details: 5 mg/unit; for % mortality 24 h: 24th hour from start of test; for % Knock-down 8 h: at end of 8th hour; for Knock-down time KT10 / Knock-down time KT50 / Knock-down time KT90: average of 3 cages
Description: (§1) Test units consisting of a paper support 20 cm×10 cm in size were impregnated with the compound of examples 3, 7 and 8 and, for comparative purposes, with the reference compounds transfluthrin and metofluthrin, at an amount of 5.00 mg/unit for each compound (pure). Using a common laboratory stand, the test unit was placed at a height of about 30 cm from the ground along one side of a 20 m^3 room (L 3.00 m×D 2.49 m×H 2.69 m). In order to homogenize the insecticidal air within the room, a small electric fan was placed on the floor diagonal to the surface of the unit, in the nearest corner at a distance of about 50 cm from the unit. Three metal cages (L 8.4 cm×Ø 8.0 cm×mesh 1.0 mm) for every mosquito species, each containing 20 3-4 day old individuals of mixed sex, were placed along the other three sides of the room, at a height of 1.80 m from the ground and at a distance of 0.45 m from the respective walls. During the test the room was kept closed and temperature and humidity were controlled (T 23-26° C., RH 49-61%). The fan was switched on and left on for 8 continuous hours. The times needed to reach 10%, 50% and 90% insect knock-down (KT10, KT50 and KT90, respectively) were recorded.
(§2) Every 2 hours and up to the 6th hour after the fan was switched on, new cages were introduced containing insects (set of 3 cages for each species).
(§3) At the end of the 8th hour, the percentage of insects knocked down in all the cages was determined, then the insects were removed from the room and transferred into an uncontaminated atmosphere within closed containers containing a sugary solution. The percentage mortality was recorded at the 24th hour from the start of the test.
(§4) The results obtained are summarized in tables 1 and 2 and the data are averages for the 3 cages.

[3] = system: Culex quinquefasciatus; assay: as above; details: 5 mg/unit; for % mortality 24 h: 24th hour from start of test; for % Knock-down 8 h: at end of 8th hour; for Knock-down time KT10 / Knock-down time KT50 / Knock-down time KT90: average of 3 cages
Description: as §1, §2, §3, §4

[4] = system: Aedes aegypti; assay: Insecticide effectiveness in the vapour phase against mosquitoes, impregnated paper unit in 20 m^3 room (Example 5); details: 5 mg/unit; for % mortality 24 h: 24th hour from start of test; for % Knock-down 8 h: at end of 8th hour; for Knock-down time KT10 / Knock-down time KT50 / Knock-down time KT90: average of 3 cages
Description: (§5) Test units consisting of a paper support 20 cm×10 cm in size were impregnated with the compound of example 3 and, for comparative purposes, with the reference compounds transfluthrin and metofluthrin, at an amount of 5.00 mg/unit for each compound (pure).
(§6) Using a common laboratory stand, the test unit was placed at a height of about 30 cm from the ground along one side of a 20 m^3 room (L 3.00 m×D 2.49 m×H 2.69 m). In order to homogenize the insecticidal air within the room, a small electric fan was placed on the floor diagonal to the surface of the unit, in the is nearest corner at a distance of about 50 cm from the unit. Three metal cages (L 8.4 cm×Ø 8.0 cm×mesh 1.0 mm) for every mosquito species, each containing 20 3-4 day old individuals of mixed sex, were placed along the other three sides of the room, at a height of 1.80 m from the ground and at a distance of 0.45 m from the respective walls. During the test the room was kept closed and temperature and humidity were controlled (T 23-26° C., RH 49-61%).
(§7) The fan was switched on and left on for 8 continuous hours. The times needed to reach 10%, 50% and 90% insect knock-down (KT10, KT50 and KT90, respectively) were recorded.
as §2, §3, §4

[5] = system: Culex quinquefasciatus; assay: as above; details: 5 mg/unit; for % mortality 24 h: 24th hour from start of test; for % Knock-down 8 h: at end of 8th hour; for Knock-down time KT10 / Knock-down time KT50 / Knock-down time KT90: average of 3 cages
Description: as §5, §6, §7, §2, §3, §4

CC=CC1C(C(=O)OCc2c(F)c(F)c(COC)c(F)c2F)C1(C)C (centres unmarked) [Metofluthrin, (2,3,5,6-tetrafluoro-4-methoxy-methyl)benzyl-2,2-dimethyl-3-prop-1-enylcyclopropanecarboxylate]
percentage knock-down after 24 hours ([1]; 1 day after treatment): 80%*) | Time to reach 100% knock-down ([1]; 1 day after treatment, one of the 5 individuals recovered within 24 hours): 2 h (24 h | percentage knock-down after 24 hours ([1]; 3 days after treatment): 24 h 40% | percentage knock-down after 24 hours ([1]; 7 days after treatment): 24 h 0% | percentage knock-down after 24 hours ([1]; 10 days after treatment): 24 h 0% | % mortality 24 h ([2]; insect exposure after 0 hours): 100% | % Knock-down 8 h ([2]; insect exposure after 0 hours): 100% | Knock-down time KT10 ([2]; insect exposure after 0 hours): 16 min | Knock-down time KT50 ([2]; insect exposure after 0 hours): 25 min | Knock-down time KT90 ([2]; insect exposure after 0 hours): 34 min | % mortality 24 h ([2]; insect exposure after 2 hours): 100% | % Knock-down 8 h ([2]; insect exposure after 2 hours): 100% | Knock-down time KT10 ([2]; insect exposure after 2 hours): 7 min | Knock-down time KT50 ([2]; insect exposure after 2 hours): 9 min | Knock-down time KT90 ([2]; insect exposure after 2 hours): 15 min | % mortality 24 h ([2]; insect exposure after 4 hours): 100% | % Knock-down 8 h ([2]; insect exposure after 4 hours): 100% | Knock-down time KT10 ([2]; insect exposure after 4 hours): 6 min | Knock-down time KT50 ([2]; insect exposure after 4 hours): 8 min | Knock-down time KT90 ([2]; insect exposure after 4 hours): 14 min | % mortality 24 h ([3]; insect exposure after 0 hours): 100% | % Knock-down 8 h ([3]; insect exposure after 0 hours): 100% | Knock-down time KT10 ([3]; insect exposure after 0 hours): 22 min | Knock-down time KT50 ([3]; insect exposure after 0 hours): 32 min | Knock-down time KT90 ([3]; insect exposure after 0 hours): 36 min | % mortality 24 h ([3]; insect exposure after 2 hours): 100% | % Knock-down 8 h ([3]; insect exposure after 2 hours): 100% | Knock-down time KT10 ([3]; insect exposure after 2 hours): 11 min | Knock-down time KT50 ([3]; insect exposure after 2 hours): 16 min | Knock-down time KT90 ([3]; insect exposure after 2 hours): 22 min | % mortality 24 h ([3]; insect exposure after 4 hours): 100% | % Knock-down 8 h ([3]; insect exposure after 4 hours): 100% | Knock-down time KT10 ([3]; insect exposure after 4 hours): 10 min | Knock-down time KT50 ([3]; insect exposure after 4 hours): 14 min | Knock-down time KT90 ([3]; insect exposure after 4 hours): 20 min | % mortality 24 h ([4]; insect exposure after 0 hours): 100% | % Knock-down 8 h ([4]; insect exposure after 0 hours): 100% | Knock-down time KT10 ([4]; insect exposure after 0 hours): 23 min | Knock-down time KT50 ([4]; insect exposure after 0 hours): 30 min | Knock-down time KT90 ([4]; insect exposure after 0 hours): 39 min | % mortality 24 h ([4]; insect exposure after 2 hours): 100% | % Knock-down 8 h ([4]; insect exposure after 2 hours): 100% | Knock-down time KT10 ([4]; insect exposure after 2 hours): 7 min | Knock-down time KT50 ([4]; insect exposure after 2 hours): 9 min | Knock-down time KT90 ([4]; insect exposure after 2 hours): 15 min | % mortality 24 h ([4]; insect exposure after 4 hours): 100% | % Knock-down 8 h ([4]; insect exposure after 4 hours): 100% | Knock-down time KT10 ([4]; insect exposure after 4 hours): 6 min | Knock-down time KT50 ([4]; insect exposure after 4 hours): 8 min | Knock-down time KT90 ([4]; insect exposure after 4 hours): 14 min | % mortality 24 h ([5]; insect exposure after 0 hours): 100% | % Knock-down 8 h ([5]; insect exposure after 0 hours): 100% | Knock-down time KT10 ([5]; insect exposure after 0 hours): 26 min | Knock-down time KT50 ([5]; insect exposure after 0 hours): 30 min | Knock-down time KT90 ([5]; insect exposure after 0 hours): 35 min | % mortality 24 h ([5]; insect exposure after 2 hours): 100% | % Knock-down 8 h ([5]; insect exposure after 2 hours): 100% | Knock-down time KT10 ([5]; insect exposure after 2 hours): 11 min | Knock-down time KT50 ([5]; insect exposure after 2 hours): 16 min | Knock-down time KT90 ([5]; insect exposure after 2 hours): 24 min | % mortality 24 h ([5]; insect exposure after 4 hours): 100% | % Knock-down 8 h ([5]; insect exposure after 4 hours): 100% | Knock-down time KT10 ([5]; insect exposure after 4 hours): 11 min | Knock-down time KT50 ([5]; insect exposure after 4 hours): 16 min | Knock-down time KT90 ([5]; insect exposure after 4 hours): 20 min

CC1(C)[C@H](C=C(Cl)Cl)[C@H]1C(=O)OCc1c(F)c(F)cc(F)c1F [Transfluthrin, transfluthrin]
percentage knock-down after 24 hours ([1]; 1 day after treatment): 60% | percentage knock-down after 24 hours ([1]; 3 days after treatment): 24 h 0% | percentage knock-down after 24 hours ([1]; 7 days after treatment): 24 h 0% | % mortality 24 h ([2]; insect exposure after 0 hours): 100% | % Knock-down 8 h ([2]; insect exposure after 0 hours): 100% | Knock-down time KT10 ([2]; insect exposure after 0 hours): 21 min | Knock-down time KT50 ([2]; insect exposure after 0 hours): 26 min | Knock-down time KT90 ([2]; insect exposure after 0 hours): 35 min | % mortality 24 h ([2]; insect exposure after 2 hours): 100% | % Knock-down 8 h ([2]; insect exposure after 2 hours): 100% | Knock-down time KT10 ([2]; insect exposure after 2 hours): 7 min | Knock-down time KT50 ([2]; insect exposure after 2 hours): 9 min | Knock-down time KT90 ([2]; insect exposure after 2 hours): 12 min | % mortality 24 h ([2]; insect exposure after 4 hours): 100% | % Knock-down 8 h ([2]; insect exposure after 4 hours): 100% | Knock-down time KT10 ([2]; insect exposure after 4 hours): 6 min | Knock-down time KT50 ([2]; insect exposure after 4 hours): 9 min | Knock-down time KT90 ([2]; insect exposure after 4 hours): 14 min | % mortality 24 h ([3]; insect exposure after 0 hours): 100% | % Knock-down 8 h ([3]; insect exposure after 0 hours): 100% | Knock-down time KT10 ([3]; insect exposure after 0 hours): 31 min | Knock-down time KT50 ([3]; insect exposure after 0 hours): 42 min | Knock-down time KT90 ([3]; insect exposure after 0 hours): 55 min | % mortality 24 h ([3]; insect exposure after 2 hours): 100% | % Knock-down 8 h ([3]; insect exposure after 2 hours): 100% | Knock-down time KT10 ([3]; insect exposure after 2 hours): 16 min | Knock-down time KT50 ([3]; insect exposure after 2 hours): 25 min | Knock-down time KT90 ([3]; insect exposure after 2 hours): 34 min | % mortality 24 h ([3]; insect exposure after 4 hours): 100% | % Knock-down 8 h ([3]; insect exposure after 4 hours): 100% | Knock-down time KT10 ([3]; insect exposure after 4 hours): 11 min | Knock-down time KT50 ([3]; insect exposure after 4 hours): 16 min | Knock-down time KT90 ([3]; insect exposure after 4 hours): 24 min | % mortality 24 h ([4]; insect exposure after 0 hours): 100% | % Knock-down 8 h ([4]; insect exposure after 0 hours): 100% | Knock-down time KT10 ([4]; insect exposure after 0 hours): 21 min | Knock-down time KT50 ([4]; insect exposure after 0 hours): 26 min | Knock-down time KT90 ([4]; insect exposure after 0 hours): 36 min | % mortality 24 h ([4]; insect exposure after 2 hours): 100% | % Knock-down 8 h ([4]; insect exposure after 2 hours): 100% | Knock-down time KT10 ([4]; insect exposure after 2 hours): 5 min | Knock-down time KT50 ([4]; insect exposure after 2 hours): 9 min | Knock-down time KT90 ([4]; insect exposure after 2 hours): 12 min | % mortality 24 h ([4]; insect exposure after 4 hours): 100% | % Knock-down 8 h ([4]; insect exposure after 4 hours): 100% | Knock-down time KT10 ([4]; insect exposure after 4 hours): 4 min | Knock-down time KT50 ([4]; insect exposure after 4 hours): 7 min | Knock-down time KT90 ([4]; insect exposure after 4 hours): 10 min | % mortality 24 h ([5]; insect exposure after 0 hours): 100% | % Knock-down 8 h ([5]; insect exposure after 0 hours): 100% | Knock-down time KT10 ([5]; insect exposure after 0 hours): 27 min | Knock-down time KT50 ([5]; insect exposure after 0 hours): 37 min | Knock-down time KT90 ([5]; insect exposure after 0 hours): 44 min | % mortality 24 h ([5]; insect exposure after 2 hours): 100% | % Knock-down 8 h ([5]; insect exposure after 2 hours): 100% | Knock-down time KT10 ([5]; insect exposure after 2 hours): 7 min | Knock-down time KT50 ([5]; insect exposure after 2 hours): 14 min | Knock-down time KT90 ([5]; insect exposure after 2 hours): 20 min | % mortality 24 h ([5]; insect exposure after 4 hours): 100% | % Knock-down 8 h ([5]; insect exposure after 4 hours): 100% | Knock-down time KT10 ([5]; insect exposure after 4 hours): 9 min | Knock-down time KT50 ([5]; insect exposure after 4 hours): 17 min | Knock-down time KT90 ([5]; insect exposure after 4 hours): 22 min
